Assays:
[1] = target: T1, Amine oxidase [flavin-containing] A (Homo sapiens, UniProt P21397); assay: DRUGMATRIX: Monoamine Oxidase MAO-A enzyme inhibition (substrate: Kynuramine); design: species or system BTI-TN-5B1-4; details: bti-tn-5b1-4; Not Active = under 50% inhibition at 10 µM
T1 sequence (P21397 whole entry): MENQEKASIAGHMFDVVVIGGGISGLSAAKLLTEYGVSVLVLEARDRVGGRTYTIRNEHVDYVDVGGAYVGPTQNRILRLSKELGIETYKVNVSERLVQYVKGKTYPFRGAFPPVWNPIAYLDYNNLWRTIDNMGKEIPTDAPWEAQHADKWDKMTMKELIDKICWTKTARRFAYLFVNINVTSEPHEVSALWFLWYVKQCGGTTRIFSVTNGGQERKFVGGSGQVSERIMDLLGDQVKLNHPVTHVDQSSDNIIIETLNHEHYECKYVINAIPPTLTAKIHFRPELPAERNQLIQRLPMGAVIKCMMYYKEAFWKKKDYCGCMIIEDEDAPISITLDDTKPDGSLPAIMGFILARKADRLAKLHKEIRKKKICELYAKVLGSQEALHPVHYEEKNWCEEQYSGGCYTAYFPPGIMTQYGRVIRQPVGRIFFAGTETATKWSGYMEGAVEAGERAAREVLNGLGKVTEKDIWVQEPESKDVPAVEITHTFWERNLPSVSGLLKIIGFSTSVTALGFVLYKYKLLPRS

[2] = target: T2, Thromboxane-A synthase (Homo sapiens, UniProt P24557); assay: biochemical; assay type: tissue-based, Platelet; details: platelet;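 note: enzyme inhibition assay with PGH2 supplied as substrate; in other assays of this panel Not Active means under 50% inhibition at 10 µM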
T2 sequence (P24557 whole entry): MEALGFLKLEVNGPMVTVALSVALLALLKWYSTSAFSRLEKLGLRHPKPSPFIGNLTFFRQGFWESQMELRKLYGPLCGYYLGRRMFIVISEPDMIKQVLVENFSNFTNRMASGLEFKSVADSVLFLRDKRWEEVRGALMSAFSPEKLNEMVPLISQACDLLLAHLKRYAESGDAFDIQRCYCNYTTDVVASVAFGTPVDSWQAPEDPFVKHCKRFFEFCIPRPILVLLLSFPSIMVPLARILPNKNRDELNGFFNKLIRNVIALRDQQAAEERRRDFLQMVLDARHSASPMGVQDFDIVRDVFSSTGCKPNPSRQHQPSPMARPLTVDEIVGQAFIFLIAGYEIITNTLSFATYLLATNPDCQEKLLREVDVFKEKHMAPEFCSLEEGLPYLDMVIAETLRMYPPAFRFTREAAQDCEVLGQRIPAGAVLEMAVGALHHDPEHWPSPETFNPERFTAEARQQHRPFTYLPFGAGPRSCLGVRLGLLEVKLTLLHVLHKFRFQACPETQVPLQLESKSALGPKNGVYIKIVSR

[3] = target: Aldo-keto reductase family 1 member B1 (Rattus norvegicus, UniProt P07943); assay type: tissue-based, Lens of camera-type eye;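 note: inhibition of aldose reductase enzyme activity, measured with DL-glyceraldehyde as the substrate; in other assays of this panel Not Active means under 50% inhibition at 10 µM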
[4] = target: Insulin receptor (Rattus norvegicus, UniProt P15127); assay type: cell membranes, Wistar, Liver, Membrane; note: in other assays of this panel Not Active means under 50% inhibition at 10 µM
[5] = target: D(3) dopamine receptor (Homo sapiens, UniProt P35462); assay: DRUGMATRIX: Dopamine D3 radioligand binding (ligand: [3H] Spiperone); assay type: cell membranes, CHO, Membrane; details: cho
[6] = target: Cytochrome P450 2E1 (Homo sapiens, UniProt P05181); details: bti-tn-5b1-4; note: in other assays of this panel Not Active means under 50% inhibition at 10 µM
[7] = target: Cannabinoid receptor 1 (Homo sapiens, UniProt P21554); assay type: cell membranes, Membrane; details: chem-1; note: in other assays of this panel Not Active means under 50% inhibition at 10 µM
[8] = target: 5-hydroxytryptamine receptor 6 (Homo sapiens, UniProt P50406); assay type: cell membranes, HeLa, Membrane; details: hela; note: in other assays of this panel Not Active means under 50% inhibition at 10 µM
[9] = DRUGMATRIX: Sigma2 radioligand binding (ligand: [3H] Ifenprodil); assay type: cell membranes, Rattus norvegicus, Wistar, Brain, Membrane; details: Not Active = under 50% inhibition at 10 µM
[10] = target: Adenosine receptor A2a (Homo sapiens, UniProt P29274); assay: DRUGMATRIX: Adenosine A2A radioligand binding (ligand: […]); assay type: cell membranes, HEK293, Membrane; details: hek293; Not Active = under 50% inhibition at 10 µM
[11] = target: T3, Cholecystokinin receptor type A (Homo sapiens, UniProt P32238); assay type: cell membranes, Membrane; details: 1321-n1; note: in other assays of this panel Not Active means under 50% inhibition at 10 µM
T3 sequence (P32238 whole entry): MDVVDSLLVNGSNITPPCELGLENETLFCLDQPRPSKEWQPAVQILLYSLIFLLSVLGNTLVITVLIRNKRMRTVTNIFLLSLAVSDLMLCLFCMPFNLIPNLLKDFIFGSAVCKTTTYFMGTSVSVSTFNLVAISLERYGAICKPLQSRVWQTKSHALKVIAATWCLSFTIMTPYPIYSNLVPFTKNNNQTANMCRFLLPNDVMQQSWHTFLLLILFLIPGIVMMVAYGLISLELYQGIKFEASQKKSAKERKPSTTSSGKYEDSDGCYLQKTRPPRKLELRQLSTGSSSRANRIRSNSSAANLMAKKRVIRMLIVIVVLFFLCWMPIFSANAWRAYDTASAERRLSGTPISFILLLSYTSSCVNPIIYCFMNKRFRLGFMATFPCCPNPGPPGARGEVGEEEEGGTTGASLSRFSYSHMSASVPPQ

[12] = DRUGMATRIX: Sodium/nucleoside co-transporter radioligand binding (ligand: nitrobenzylthioinosine); assay type: cell membranes, Cavia porcellus, Dunkin-Hartley, Cerebral cortex, Membrane; details: Not Active = under 50% inhibition at 10 µM
[13] = target: Epidermal growth factor receptor (Homo sapiens, UniProt P00533); assay: DRUGMATRIX: Protein Tyrosine Kinase, EGF Receptor enzyme inhibition (substrate: Poly(Glu:Tyr)); assay type: cell-based, Insect cells; details: insect cells; Not Active = under 50% inhibition at 10 µM
[14] = DRUGMATRIX: Tumor Necrosis Factor (TNF), Non-Selective radioligand binding (ligand: [125I] TNF-alpha); assay type: cell membranes, Membrane; details: u-937; Not Active = under 50% inhibition at 10 µM
[15] = target: T4, Calcitonin receptor (Homo sapiens, UniProt P30988); assay type: cell membranes, Membrane; details: t47d; note: in other assays of this panel Not Active means under 50% inhibition at 10 µM
T4 sequence (P30988 whole entry): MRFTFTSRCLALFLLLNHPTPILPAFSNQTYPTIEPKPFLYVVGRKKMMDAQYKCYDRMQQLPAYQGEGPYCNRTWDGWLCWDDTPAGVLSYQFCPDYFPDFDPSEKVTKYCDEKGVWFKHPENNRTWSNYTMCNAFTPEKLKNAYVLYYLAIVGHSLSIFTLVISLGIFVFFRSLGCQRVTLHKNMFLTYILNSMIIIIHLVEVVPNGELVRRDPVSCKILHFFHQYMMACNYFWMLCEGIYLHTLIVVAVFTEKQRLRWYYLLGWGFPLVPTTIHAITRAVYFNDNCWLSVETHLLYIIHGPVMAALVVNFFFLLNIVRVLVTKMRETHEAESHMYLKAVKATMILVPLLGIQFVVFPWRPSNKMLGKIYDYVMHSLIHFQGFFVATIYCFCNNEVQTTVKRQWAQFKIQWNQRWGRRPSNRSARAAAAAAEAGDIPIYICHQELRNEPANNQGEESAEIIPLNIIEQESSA

D(3) dopamine receptor, sequence (P35462 whole entry): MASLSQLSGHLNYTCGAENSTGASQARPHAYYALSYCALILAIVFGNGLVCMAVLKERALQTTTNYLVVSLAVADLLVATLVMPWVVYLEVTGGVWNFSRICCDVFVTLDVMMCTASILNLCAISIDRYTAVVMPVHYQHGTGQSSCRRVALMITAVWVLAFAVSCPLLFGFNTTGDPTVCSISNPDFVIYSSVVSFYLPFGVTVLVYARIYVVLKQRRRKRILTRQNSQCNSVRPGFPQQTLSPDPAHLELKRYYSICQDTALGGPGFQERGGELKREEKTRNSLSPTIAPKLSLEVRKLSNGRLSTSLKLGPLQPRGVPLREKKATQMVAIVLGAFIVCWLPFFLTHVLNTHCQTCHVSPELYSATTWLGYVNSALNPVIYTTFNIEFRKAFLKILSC
5-hydroxytryptamine receptor 6, sequence (P50406 whole entry): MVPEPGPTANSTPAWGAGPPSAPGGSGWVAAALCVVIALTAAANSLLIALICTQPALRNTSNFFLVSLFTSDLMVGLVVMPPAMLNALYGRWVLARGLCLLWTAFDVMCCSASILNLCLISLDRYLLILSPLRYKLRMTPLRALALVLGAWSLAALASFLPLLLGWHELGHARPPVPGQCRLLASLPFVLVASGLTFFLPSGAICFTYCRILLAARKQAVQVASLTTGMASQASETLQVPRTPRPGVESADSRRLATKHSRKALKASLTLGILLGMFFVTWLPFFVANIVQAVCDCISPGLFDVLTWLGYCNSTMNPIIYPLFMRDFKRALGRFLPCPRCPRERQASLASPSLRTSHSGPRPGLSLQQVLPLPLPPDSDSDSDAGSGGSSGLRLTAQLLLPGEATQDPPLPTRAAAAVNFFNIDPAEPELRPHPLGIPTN
Cannabinoid receptor 1, sequence (P21554 whole entry): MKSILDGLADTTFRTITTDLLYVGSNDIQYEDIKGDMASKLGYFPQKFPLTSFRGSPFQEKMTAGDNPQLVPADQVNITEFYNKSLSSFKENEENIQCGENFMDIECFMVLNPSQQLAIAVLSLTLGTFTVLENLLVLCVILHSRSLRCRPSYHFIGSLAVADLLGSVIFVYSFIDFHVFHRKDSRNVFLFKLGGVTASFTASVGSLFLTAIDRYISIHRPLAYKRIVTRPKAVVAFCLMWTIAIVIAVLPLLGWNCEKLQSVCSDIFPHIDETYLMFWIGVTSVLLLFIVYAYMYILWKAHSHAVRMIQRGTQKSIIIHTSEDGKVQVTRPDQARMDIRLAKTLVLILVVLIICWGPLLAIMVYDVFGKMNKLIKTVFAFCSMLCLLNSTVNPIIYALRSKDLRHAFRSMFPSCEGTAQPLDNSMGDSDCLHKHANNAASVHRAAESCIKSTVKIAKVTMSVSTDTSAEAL
Cytochrome P450 2E1, sequence (P05181 whole entry): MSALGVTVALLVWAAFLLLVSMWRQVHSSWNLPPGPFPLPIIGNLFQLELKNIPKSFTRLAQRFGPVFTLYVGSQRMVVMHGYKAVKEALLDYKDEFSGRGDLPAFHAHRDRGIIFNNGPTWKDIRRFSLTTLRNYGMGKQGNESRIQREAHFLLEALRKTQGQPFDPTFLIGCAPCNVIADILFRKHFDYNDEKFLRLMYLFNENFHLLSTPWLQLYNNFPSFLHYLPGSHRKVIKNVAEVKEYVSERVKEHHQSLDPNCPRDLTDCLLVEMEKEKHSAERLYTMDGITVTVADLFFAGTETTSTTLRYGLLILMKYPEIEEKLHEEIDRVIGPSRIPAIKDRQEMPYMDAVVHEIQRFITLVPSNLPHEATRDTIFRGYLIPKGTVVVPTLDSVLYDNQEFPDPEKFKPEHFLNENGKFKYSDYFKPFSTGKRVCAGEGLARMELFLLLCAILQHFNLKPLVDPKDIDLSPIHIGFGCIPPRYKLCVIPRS
Epidermal growth factor receptor, sequence (P00533 whole entry): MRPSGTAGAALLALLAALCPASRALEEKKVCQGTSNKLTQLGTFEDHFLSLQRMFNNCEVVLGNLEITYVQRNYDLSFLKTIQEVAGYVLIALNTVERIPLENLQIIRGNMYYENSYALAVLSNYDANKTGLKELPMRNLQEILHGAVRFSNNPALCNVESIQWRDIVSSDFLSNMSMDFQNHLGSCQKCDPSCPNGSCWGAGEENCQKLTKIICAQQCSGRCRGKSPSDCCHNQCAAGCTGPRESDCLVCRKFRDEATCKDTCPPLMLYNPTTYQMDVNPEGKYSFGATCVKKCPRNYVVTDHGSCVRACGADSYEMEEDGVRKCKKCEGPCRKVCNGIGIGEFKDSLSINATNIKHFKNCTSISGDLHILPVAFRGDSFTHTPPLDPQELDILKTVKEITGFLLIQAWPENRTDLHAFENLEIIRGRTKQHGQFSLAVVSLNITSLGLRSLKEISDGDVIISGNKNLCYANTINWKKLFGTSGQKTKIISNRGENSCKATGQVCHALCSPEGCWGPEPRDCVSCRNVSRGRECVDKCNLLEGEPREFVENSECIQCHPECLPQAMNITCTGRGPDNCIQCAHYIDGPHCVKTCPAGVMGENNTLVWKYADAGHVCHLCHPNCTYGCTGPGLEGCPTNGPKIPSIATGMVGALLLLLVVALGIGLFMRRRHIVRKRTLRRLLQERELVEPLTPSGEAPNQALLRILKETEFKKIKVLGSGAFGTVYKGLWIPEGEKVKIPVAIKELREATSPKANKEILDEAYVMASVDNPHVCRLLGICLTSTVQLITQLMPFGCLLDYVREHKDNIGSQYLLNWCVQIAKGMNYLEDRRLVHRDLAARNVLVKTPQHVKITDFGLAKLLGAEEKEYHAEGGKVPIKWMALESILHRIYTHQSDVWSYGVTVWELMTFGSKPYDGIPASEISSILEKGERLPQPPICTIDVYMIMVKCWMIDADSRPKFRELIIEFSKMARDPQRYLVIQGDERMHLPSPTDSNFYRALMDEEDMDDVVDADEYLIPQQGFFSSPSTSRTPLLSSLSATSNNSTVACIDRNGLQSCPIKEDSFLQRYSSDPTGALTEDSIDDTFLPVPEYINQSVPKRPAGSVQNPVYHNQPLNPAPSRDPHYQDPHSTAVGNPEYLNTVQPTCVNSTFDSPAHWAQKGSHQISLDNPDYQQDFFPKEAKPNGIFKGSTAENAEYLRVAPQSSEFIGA
Adenosine receptor A2a, sequence (P29274 whole entry): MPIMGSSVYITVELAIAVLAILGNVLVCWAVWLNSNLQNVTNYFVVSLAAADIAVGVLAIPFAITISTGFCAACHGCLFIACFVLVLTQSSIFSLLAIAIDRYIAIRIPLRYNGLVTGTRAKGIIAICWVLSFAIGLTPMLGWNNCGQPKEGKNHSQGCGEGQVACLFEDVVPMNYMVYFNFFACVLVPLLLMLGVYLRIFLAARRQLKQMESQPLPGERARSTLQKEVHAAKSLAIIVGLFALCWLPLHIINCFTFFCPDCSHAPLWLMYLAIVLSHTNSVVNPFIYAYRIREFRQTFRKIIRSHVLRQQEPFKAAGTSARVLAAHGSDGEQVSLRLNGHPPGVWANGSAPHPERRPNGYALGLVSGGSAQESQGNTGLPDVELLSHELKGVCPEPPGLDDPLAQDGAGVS
Insulin receptor, sequence (P15127 27-759 limits assumed): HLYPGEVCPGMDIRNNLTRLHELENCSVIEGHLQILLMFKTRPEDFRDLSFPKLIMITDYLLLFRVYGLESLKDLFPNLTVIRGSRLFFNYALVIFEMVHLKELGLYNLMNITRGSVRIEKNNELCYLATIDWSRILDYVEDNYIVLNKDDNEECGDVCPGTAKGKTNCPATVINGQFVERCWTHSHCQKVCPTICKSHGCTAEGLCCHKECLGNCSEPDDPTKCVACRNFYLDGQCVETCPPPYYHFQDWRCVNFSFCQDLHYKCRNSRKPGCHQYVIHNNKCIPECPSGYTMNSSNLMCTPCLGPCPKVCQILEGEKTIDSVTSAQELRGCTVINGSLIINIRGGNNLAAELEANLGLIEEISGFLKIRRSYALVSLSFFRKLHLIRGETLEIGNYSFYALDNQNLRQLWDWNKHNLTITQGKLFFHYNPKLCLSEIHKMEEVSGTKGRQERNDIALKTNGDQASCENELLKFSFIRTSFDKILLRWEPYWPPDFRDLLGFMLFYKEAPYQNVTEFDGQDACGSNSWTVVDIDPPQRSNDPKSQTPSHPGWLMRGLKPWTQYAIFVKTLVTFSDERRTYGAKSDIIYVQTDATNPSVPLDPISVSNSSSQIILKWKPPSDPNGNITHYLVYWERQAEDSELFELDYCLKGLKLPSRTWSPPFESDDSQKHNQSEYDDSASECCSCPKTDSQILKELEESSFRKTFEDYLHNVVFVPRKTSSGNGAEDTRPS
Insulin receptor, sequence (P15127 764-1383 limits assumed): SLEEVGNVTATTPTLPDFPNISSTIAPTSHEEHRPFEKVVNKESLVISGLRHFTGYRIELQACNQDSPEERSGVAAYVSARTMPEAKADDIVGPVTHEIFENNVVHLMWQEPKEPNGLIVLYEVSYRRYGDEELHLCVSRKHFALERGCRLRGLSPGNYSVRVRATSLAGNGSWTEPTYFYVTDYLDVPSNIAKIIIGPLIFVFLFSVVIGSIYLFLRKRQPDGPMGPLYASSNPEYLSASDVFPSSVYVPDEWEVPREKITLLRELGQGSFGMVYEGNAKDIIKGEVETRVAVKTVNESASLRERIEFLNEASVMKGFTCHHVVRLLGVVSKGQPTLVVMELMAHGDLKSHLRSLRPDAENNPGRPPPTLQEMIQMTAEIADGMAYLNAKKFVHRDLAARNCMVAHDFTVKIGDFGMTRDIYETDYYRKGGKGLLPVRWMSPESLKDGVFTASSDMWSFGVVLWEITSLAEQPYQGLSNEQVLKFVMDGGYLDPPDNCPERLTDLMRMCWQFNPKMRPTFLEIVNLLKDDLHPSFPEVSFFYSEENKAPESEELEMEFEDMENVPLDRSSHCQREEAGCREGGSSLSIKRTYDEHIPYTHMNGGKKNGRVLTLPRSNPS

Cc1cc(NS(=O)(=O)c2ccc(N)cc2)no1 [SULFAMETHOXAZOLE]
Not Active: IC50 [1] | IC50 [2] | IC50 [3] | IC50 [4] | IC50 [5] | IC50 [6] | Ki [6] | IC50 [7] | IC50 [8] | IC50 [9] | Ki [9] | IC50 [10] | IC50 [11] | IC50 [12] | Ki [12] | IC50 [13] | IC50 [14] | Ki [14] | IC50 [15]

Nc1ccc(S(N)(=O)=O)cc1 [SULFANILAMIDE]
Not Active: IC50 [1] | IC50 [2] | IC50 [3] | IC50 [4] | IC50 [5] | IC50 [6] | Ki [6] | IC50 [7] | IC50 [8] | IC50 [9] | Ki [9] | IC50 [10] | IC50 [11] | IC50 [12] | Ki [12] | IC50 [13] | IC50 [14] | Ki [14] | IC50 [15]

Nc1ccc(S(=O)(=O)Nc2ccnn2-c2ccccc2)cc1 [SULFAPHENAZOLE]
Not Active: IC50 [1] | IC50 [2] | IC50 [3] | IC50 [4] | IC50 [5] | IC50 [6] | Ki [6] | IC50 [7] | IC50 [8] | IC50 [9] | Ki [9] | IC50 [10] | IC50 [11] | IC50 [12] | Ki [12] | IC50 [13] | IC50 [14] | Ki [14] | IC50 [15]

C=CC[C@@H]1/C=C(\C)C[C@H](C)C[C@H](OC)[C@H]2O[C@@](O)(C(=O)C(=O)N3CCCC[C@H]3C(=O)O[C@H](/C(C)=C/[C@@H]3CC[C@@H](O)[C@H](OC)C3)[C@H](C)[C@@H](O)CC1=O)[C@H](C)C[C@@H]2OC [TACROLIMUS ANHYDROUS]
Not Active: IC50 [1] | IC50 [2] | IC50 [3] | IC50 [4] | IC50 [5] | IC50 [6] | Ki [6] | IC50 [7] | IC50 [8] | IC50 [9] | Ki [9] | IC50 [10] | IC50 [11] | IC50 [12] | Ki [12] | IC50 [13] | IC50 [14] | Ki [14] | IC50 [15]

CC1CN(c2cc3c(cc2F)c(=O)c(C(=O)O)cn3-c2ccc(F)cc2F)CCN1 (stereo not drawn) [TEMAFLOXACIN]
Not Active: IC50 [1] | IC50 [2] | IC50 [3] | IC50 [4] | IC50 [5] | IC50 [6] | Ki [6] | IC50 [7] | IC50 [8] | IC50 [9] | Ki [9] | IC50 [10] | IC50 [11] | IC50 [12] | Ki [12] | IC50 [13] | IC50 [14] | Ki [14] | IC50 [15]

CC(C)(C)NCC(O)c1cc(O)cc(O)c1 (stereo not drawn) [TERBUTALINE]
Not Active: IC50 [1] | IC50 [2] | IC50 [3] | IC50 [4] | IC50 [5] | IC50 [6] | Ki [6] | IC50 [7] | IC50 [8] | IC50 [9] | Ki [9] | IC50 [10] | IC50 [11] | IC50 [12] | Ki [12] | IC50 [13] | IC50 [14] | Ki [14] | IC50 [15]

CN(C)[C@@H]1C(O)=C(C(N)=O)C(=O)[C@@]2(O)C(O)=C3C(=O)c4c(O)cccc4[C@@](C)(O)[C@H]3C[C@@H]12 [TETRACYCLINE]
Not Active: IC50 [1] | IC50 [2] | IC50 [3] | IC50 [4] | IC50 [5] | IC50 [6] | Ki [6] | IC50 [7] | IC50 [8] | IC50 [9] | Ki [9] | IC50 [10] | IC50 [11] | IC50 [12] | Ki [12] | IC50 [13] | IC50 [14] | Ki [14] | IC50 [15]
